{
  "source": "patent EP0251013A2",
  "about": "“Fluorine containing o-aminophenols” (BAYER AG, priority 1986, dated 1988)",
  "type_in_all_cases": "in vivo",
  "key": {"[1]": {"tested_on": "Baumwolle", "test": "Post-emergence test, greenhouse", "conditions": "Baumwolle, 0,25 kg/ha, sprayed on plants 5 - 15 cm high, rated after three weeks vs untreated control (0 % = no effect, 100 % = total destruction)", "text": "(§1) Lösungsmittel: 5 Gewichtsteile Aceton Emulgator: 1 Gewichtsteil Alkylarylpolyglykolether\n(§2) Zur Herstellung einer zweckmäßigen Wirkstoffzubereitung vermischte man 1 Gewichtsteil Wirkstoff mit der angegebenen Menge Lösungsmittel, gab die angegebene Menge Emulgator zu und verdünnte das Konzentrat mit Wasser auf die gewünschte Konzentration.\n(§3) Mit der Wirkstoffzubereitung spritzte man Testpflanzen, welche eine Höhe von 5 - 15 cm hatten so, daß die jeweils gewünschten Wirkstoffmengen pro Flächeneinheit ausgebracht wurden. Die Konzentration der Spritzbrühe wurde so gewählt, daß in 2000 1 Wasser/ha die jeweils gewünschten Wirkstoffmengen ausgebracht wurden. Nach drei Wochen wurde der Schädigungsgrad der Pflanzen bonitiert in % Schädigung im Vergleich zur Entwicklung der unbehandelten Kontrolle.\n(§4) Es bedeuten: • 0 % = keine Wirkung (wie unbehandelte Kontrolle) • 100 % = totale Vernichtung"}, "[2]": {"tested_on": "Chenopodium", "test": "Post-emergence test, greenhouse", "conditions": "Chenopodium, 0,25 kg/ha, rated after three weeks vs untreated control", "text": "as §1, §2, §3, §4"}, "[3]": {"tested_on": "Sinapis", "test": "Post-emergence test, greenhouse", "conditions": "Sinapis, 0,25 kg/ha, rated after three weeks vs untreated control", "text": "as §1, §2, §3, §4"}, "[4]": {"tested_on": "Echinochloa", "test": "Post-emergence test, greenhouse", "conditions": "Echinochloa, 0,25 kg/ha, rated after three weeks vs untreated control", "text": "as §1, §2, §3, §4"}, "[5]": {"tested_on": "Poa", "test": "Post-emergence test, greenhouse", "conditions": "Poa, 0,25 kg/ha, rated after three weeks vs untreated control", "text": "as §1, §2, §3, §4"}, "[6]": {"tested_on": "Solanum", "test": "Post-emergence test, greenhouse", "conditions": "Solanum, 0,25 kg/ha, rated after three weeks vs untreated control", "text": "as §1, §2, §3, §4"}, "[7]": {"tested_on": "Mais", "test": "Post-emergence test, greenhouse", "conditions": "Mais, 0,25 kg/ha, rated after three weeks vs untreated control", "text": "as §1, §2, §3, §4"}, "[8]": {"tested_on": "Datura", "test": "Pre-emergence test, greenhouse", "conditions": "Datura, 1,0 kg/ha, rated after three weeks vs untreated control", "text": "as §1, §2\n(§5) Samen der Testpflanzen wurden in normalen Boden ausgesät und nach 24 Stunden mit der Wirkstoffzubereitung begossen. Dabei wurde die Wassermenge pro Flächeneinheit zweckmäßigerweise konstant gehalten. Die Wirkstoffkonzentration in der Zubereitung spielte keine Rolle, entscheidend war nur die Aufwandmenge des Wirkstoffs pro Flächeneinheit. Nach drei Wochen wurde der Schädigungsgrad der Pflanzen bonitiert in % Schädigung im Vergleich zur Entwicklung der unbehandelten Kontrolle. Es bedeuten: • 0 % = keine Wirkung (wie unbehandelte Kontrolle) • 100 % = totale Vernichtung"}, "[9]": {"tested_on": "Weizen", "test": "Pre-emergence test, greenhouse", "conditions": "Weizen, 1,0 kg/ha, rated after three weeks vs untreated control", "text": "as §1, §2, §5"}, "[10]": {"tested_on": "Portulak", "test": "Pre-emergence test, greenhouse", "conditions": "Portulak, 1,0 kg/ha, rated after three weeks vs untreated control", "text": "as §1, §2, §5"}, "[11]": {"tested_on": "Baumwolle", "test": "Pre-emergence test, greenhouse", "conditions": "Baumwolle, 1,0 kg/ha, rated after three weeks vs untreated control (0 % = no effect, 100 % = total destruction)", "text": "as §1, §2, §5"}, "[12]": {"tested_on": "Chenopodium", "test": "Pre-emergence test, greenhouse", "conditions": "Chenopodium, 1,0 kg/ha, rated after three weeks vs untreated control", "text": "as §1, §2, §5"}, "[13]": {"tested_on": "Cynodon", "test": "Pre-emergence test, greenhouse", "conditions": "Cynodon, 1,0 kg/ha, rated after three weeks vs untreated control", "text": "as §1, §2, §5"}, "[14]": {"tested_on": "Stellaria", "test": "Pre-emergence test, greenhouse", "conditions": "Stellaria, 1,0 kg/ha, rated after three weeks vs untreated control", "text": "as §1, §2, §5"}, "[15]": {"tested_on": "Matricaria", "test": "Pre-emergence test, greenhouse", "conditions": "Matricaria, 1,0 kg/ha, rated after three weeks vs untreated control", "text": "as §1, §2, §5"}},
  "data": [
    {"molecule": "FC(Cl)(Cl)Sn1c(C(F)(F)F)nc2cc(C(F)(F)F)c(Cl)cc21", "note": "[Beispiel 13, 1-Dichlorfluormethylsulfenyl-2,5-bis(trifluormethyl)-6-chlorbenzimidazol]", "values": [
      {"measurement": "Schädigungsgrad der Pflanzen in % Schädigung", "setting": "[1]", "value": 20, "unit": "%"},
      {"measurement": "Schädigungsgrad der Pflanzen in % Schädigung", "setting": "[2]", "value": 100, "unit": "%"},
      {"measurement": "Schädigungsgrad der Pflanzen in % Schädigung", "setting": "[3]", "value": 100, "unit": "%"},
      {"measurement": "Schädigungsgrad der Pflanzen in % Schädigung", "setting": "[4]", "value": 80, "unit": "%"},
      {"measurement": "Schädigungsgrad der Pflanzen in % Schädigung", "setting": "[5]", "value": 100, "unit": "%"},
      {"measurement": "Schädigungsgrad der Pflanzen in % Schädigung", "setting": "[6]", "value": 100, "unit": "%"},
      {"measurement": "Schädigungsgrad der Pflanzen in % Schädigung", "setting": "[7]", "value": 50, "unit": "%"},
      {"measurement": "Schädigungsgrad der Pflanzen in % Schädigung", "setting": "[8]", "value": 80, "unit": "%"},
      {"measurement": "Schädigungsgrad der Pflanzen in % Schädigung", "setting": "[9]", "value": 0, "unit": "%"},
      {"measurement": "Schädigungsgrad der Pflanzen in % Schädigung", "setting": "[10]", "value": 100, "unit": "%"},
      {"measurement": "Schädigungsgrad der Pflanzen in % Schädigung", "setting": "[11]", "value": 0, "unit": "%"},
      {"measurement": "Schädigungsgrad der Pflanzen in % Schädigung", "setting": "[12]", "value": 100, "unit": "%"},
      {"measurement": "Schädigungsgrad der Pflanzen in % Schädigung", "setting": "[13]", "value": 100, "unit": "%"},
      {"measurement": "Schädigungsgrad der Pflanzen in % Schädigung", "setting": "[14]", "value": 80, "unit": "%"},
      {"measurement": "Schädigungsgrad der Pflanzen in % Schädigung", "setting": "[15]", "value": 80, "unit": "%"}
    ]}
  ]
}
